Molecules are shown by their SMILES. ± gives the expanded uncertainty stated by the source.

The speed of sound is how fast a sound wave travels through the sample.

For this data set the following is noted: 101.33 kPa, Liquid; for speed of sound: Light diffraction method; for thermal diffusivity: Optical interferometry.

Regarding `CCCCCCCCn1cc[n+](C)c1.O=S(=O)([N-]S(=O)(=O)C(F)(F)F)C(F)(F)F`, for the setting “293.15 K”, the speed of sound was 1232 ± 11 m/s and the thermal diffusivity was 6.1e-08 ± 5e-09 m2/s.
On to `CCCC[n+]1ccn(C)c1.O=S(=O)([N-]S(=O)(=O)C(F)(F)F)C(F)(F)F`, for which, under “293.15 K”, the speed of sound is listed as 1227 ± 13 m/s and the thermal diffusivity turned out to be 6e-08 ± 3e-09 m2/s.
The matching figures for `CCCCn1cc[n+](C)c1.F[P-](F)(F)(F)(F)F` [1-butyl-3-methylimidazolium hexafluorophosphate]: 1441 ± 11 m/s and 7.5e-08 ± 5e-09 m2/s.
The matching figures for `CCn1cc[n+](C)c1.O=S(=O)([N-]S(=O)(=O)C(F)(F)F)C(F)(F)F`: 1240 ± 10 m/s and 6.01e-08 ± 2.9e-09 m2/s.
Turning to `CCCCn1cc[n+](C)c1.F[B-](F)(F)F` [1-butyl-3-methylimidazolium tetrafluoroborate], under “293.15 K”, the speed of sound is reported as 1564 ± 10 m/s and the thermal diffusivity came out at 8.6e-08 ± 4e-09 m2/s.
The matching figures for `CCCCCC[n+]1ccn(C)c1.O=S(=O)([N-]S(=O)(=O)C(F)(F)F)C(F)(F)F`: 1232 ± 11 m/s and 6.06e-08 ± 3.2e-09 m2/s.
For the compound `CCCCCn1cc[n+](C)c1.O=S(=O)([N-]S(=O)(=O)C(F)(F)F)C(F)(F)F`, where the note is “298.15 K”, the speed of sound is listed as 1227 ± 7 m/s and the thermal diffusivity turned out to be 5.8e-08 ± 3e-09 m2/s.

Values taken from the NIST ThermoML archive (doi:10.1021/je0600092).
